inhibition, IC50 and Activity data for 23 molecules are collected here from ChEMBL document CHEMBL4665677, “Recent Advances of SHP2 Inhibitors in Cancer Therapy: Current Development and Clinical Application” (J Med Chem, 2020).

pIC50: −log10 of the molar value. Bounds are passed on as bounds.

The target of experiment [1] is T1, Tyrosine-protein phosphatase non-receptor type 11 (Homo sapiens) (UniProt Q06124).
T1 sequence (whole entry): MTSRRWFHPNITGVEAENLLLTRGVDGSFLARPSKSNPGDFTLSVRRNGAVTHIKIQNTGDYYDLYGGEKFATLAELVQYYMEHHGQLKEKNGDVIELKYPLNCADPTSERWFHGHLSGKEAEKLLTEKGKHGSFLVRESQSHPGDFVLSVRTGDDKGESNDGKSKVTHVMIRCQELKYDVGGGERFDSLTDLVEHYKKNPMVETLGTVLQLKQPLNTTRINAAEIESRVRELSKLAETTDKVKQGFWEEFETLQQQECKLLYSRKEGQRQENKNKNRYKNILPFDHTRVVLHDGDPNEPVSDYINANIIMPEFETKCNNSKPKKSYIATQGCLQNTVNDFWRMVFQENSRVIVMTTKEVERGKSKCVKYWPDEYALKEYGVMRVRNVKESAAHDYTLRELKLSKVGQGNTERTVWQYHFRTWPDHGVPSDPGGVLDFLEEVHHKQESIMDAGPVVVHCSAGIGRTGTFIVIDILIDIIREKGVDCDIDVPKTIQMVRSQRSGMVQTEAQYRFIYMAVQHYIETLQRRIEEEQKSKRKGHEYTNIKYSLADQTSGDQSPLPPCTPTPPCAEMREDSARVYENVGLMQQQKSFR
Briefly: Allosteric inhibition of dPEG8 peptide-activated SHP2 (unknown origin) using DiFMUP as substrate at 100 nM preincubated for 30 followed by substrate addition and measured after 30 mins by fluorescence method relative to control.

For experiment [2], the target named is T2, Tyrosine-protein phosphatase non-receptor type 11 (Homo sapiens, UniProt Q06124).
T2 sequence (Q06124 whole entry): T1 sequence (whole entry)
Briefly: Inhibition of N-terminal His6-tagged TEV cleavage site-fused human SHP2 catalytic domain (248 to 527 residues) expressed in Escherichia coli Rosetta(DE3) using 6,8-difluoro-4-methylum-belliferylphosphate as substrate preincubated for 1 hr followed by substrate addition by fluorescence method.

For experiment [3], the target named is T3, Tyrosine-protein phosphatase non-receptor type 6 (Homo sapiens, UniProt P29350). Briefly: Inhibition of SHP1 (unknown origin) using 6,8-difluoro-4-methylum-belliferylphosphate as substrate preincubated for 1 hr followed by substrate by fluorescence method.
Experiment [4] addresses T4, Tyrosine-protein phosphatase non-receptor type 1 (Homo sapiens, UniProt P18031).
T4 sequence (P18031 whole entry): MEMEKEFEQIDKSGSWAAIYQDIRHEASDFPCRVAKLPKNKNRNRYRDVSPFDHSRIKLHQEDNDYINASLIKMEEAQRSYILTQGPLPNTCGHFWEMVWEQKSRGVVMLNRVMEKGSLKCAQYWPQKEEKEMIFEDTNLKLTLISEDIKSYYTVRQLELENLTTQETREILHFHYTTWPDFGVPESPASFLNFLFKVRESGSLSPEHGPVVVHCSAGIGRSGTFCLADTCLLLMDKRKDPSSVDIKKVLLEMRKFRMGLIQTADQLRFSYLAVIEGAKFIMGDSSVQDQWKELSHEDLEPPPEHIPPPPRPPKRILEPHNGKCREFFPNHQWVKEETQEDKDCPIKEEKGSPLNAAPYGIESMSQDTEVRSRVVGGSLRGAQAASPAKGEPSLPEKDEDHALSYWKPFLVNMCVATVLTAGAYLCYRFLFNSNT
Briefly: Inhibition of PTP1B (unknown origin) using 6,8-difluoro-4-methylum-belliferylphosphate as substrate preincubated for 1 hr followed by substrate by fluorescence method.

For experiment [5], the target named is T2, Tyrosine-protein phosphatase non-receptor type 11. Briefly: Inhibition of SHP2 PTP domain (unknown origin).
The target is the same in experiment [6]. Briefly: Allosteric inhibition of IRS1_pY1172(dPEG8)pY1222 activated-human full length SHP2 (Met1 to Leu525 residues) expressed in Escherichia coli BL21 Star (DE3) cells using DiFMUP as substrate preincubated for 30 to 60 mins followed by substrate addition and measured after 30 mins by fluorescence method.
Experiment [7] has the same target. Briefly: Allosteric inhibition of full length N-terminal His6-tagged human SHP2 (2 to 593 residues) expressed in Escherichia coli using DiFMUP as substrate in presence of activating peptide preincubated for 60 mins followed by substrate addition amd measured after 30 mins by fluorescence method.
The test system of the next experiment is MeWo. Briefly: Antitumor activity against human MeWo cells xenografted in NSG (NOD/scid/IL2Rgnull) mouse assessed as reduction in tumor volume at 15 mg/kg, ip administered once daily for 21 days. In kind it is functional. On the set-up: scale not given: the % may be the effect or the level left. To be noted: time 21 day. (In general: Xenograft models place foreign cells or tissue in a host animal.)

Experiment [8] addresses T2, Tyrosine-protein phosphatase non-receptor type 11. Briefly: Allosteric inhibition of dPEG8 peptide-activated SHP2 (unknown origin) using DiFMUP as substrate preincubated for 30 followed by substrate addition and measured after 30 mins by fluorescence method.
Experiment [9] shares this target. Briefly: Allosteric inhibition of [IRSl_pY1172(dPEG8)pY1222] peptide-activated SHP2 (unknown origin) using DiFMUP as substrate preincubated for 30 to 60 mins followed by substrate addition and measured after 30 mins by fluorescence method.
For experiment [10] the target is unchanged. Briefly: Allosteric inhibition of full-length His6-tagged human SHP2 (2 to 527 residues) expressed in Escherichia coli using DiFMUP as substrate in presence of activating peptide (LN(pY)IDLDLV(dPEG8)LST(pY)ASINFQK-amide) by fluorescence method.
The target of experiment [11] is T4, Tyrosine-protein phosphatase non-receptor type 1. Briefly: Inhibition of N-terminal His6-tagged TEV cleavage site-fused human PTP1B (2 to 297 residues) expressed in Escherichia coli BL21(DE3)RILcodon+ or BL21(DE3)RPcodon+ using 4-nitrophenylphosphate as substrate.
Experiment [12] addresses T3, Tyrosine-protein phosphatase non-receptor type 6. Briefly: Inhibition of N-terminal His6-tagged TEV cleavage site-fused human SHP1 (222 to 535 residues) expressed in Escherichia coli BL21(DE3)RILcodon+ or BL21(DE3)RPcodon+ using 4-nitrophenylphosphate as substrate.
Experiment [13] addresses T2, Tyrosine-protein phosphatase non-receptor type 11. Briefly: Allosteric inhibition of SHP2 (unknown origin) using DiFMUP as substrate preincubated for 60 mins in presence of activating peptide IRS-1 followed by substrate addition and measured after 60 mins by fluorescence method.
Experiment [14] addresses T4, Tyrosine-protein phosphatase non-receptor type 1. Briefly: Inhibition of His6-fused human PTP1B expressed in Escherichia coli cells using DiFMUP as substrate preincubated for 30 followed by substrate addition and by fluorescence method.
For experiment [15], the target named is T3, Tyrosine-protein phosphatase non-receptor type 6. Briefly: Inhibition of His6-fused human full length SHP1 expressed in Escherichia coli cells using DiFMUP as substrate preincubated for 30 mins followed by substrate addition and by fluorescence method.
For experiment [16] the target is unchanged. Briefly: Inhibition of His6-fused human SHP1 catalytic domain expressed in Escherichia coli cells using DiFMUP as substrate preincubated for 30 followed by substrate addition and by fluorescence method.
The target is the same in experiment [17]. Briefly: Inhibition of recombinant His6-fused SHP1 catalytic domain (unknown origin) using p-nitrophenyl phosphate as substrate by spectrophotometric analysis.
Experiment [18] can be described thus: Antitumor activity against human LXFA526L cells xenografted in NMRI nu/nu mouse assessed as induction of tumor regression at 46 mg/kg, ip administered once daily and measured on day 27 relative to control. The following applies: time 27 day. In kind it is functional.
For experiment [19], the target named is Tyrosine-protein phosphatase non-receptor type 11 (Homo sapiens, UniProt Q06124, Q257L/T253M). Briefly: Inhibition of SHP2 T253M/Q257L double mutant (unknown origin).
Tyrosine-protein phosphatase non-receptor type 11 (Homo sapiens, UniProt Q06124, Q257L/T253M), sequence (Q06124 2-593 T253M/Q257L limits assumed): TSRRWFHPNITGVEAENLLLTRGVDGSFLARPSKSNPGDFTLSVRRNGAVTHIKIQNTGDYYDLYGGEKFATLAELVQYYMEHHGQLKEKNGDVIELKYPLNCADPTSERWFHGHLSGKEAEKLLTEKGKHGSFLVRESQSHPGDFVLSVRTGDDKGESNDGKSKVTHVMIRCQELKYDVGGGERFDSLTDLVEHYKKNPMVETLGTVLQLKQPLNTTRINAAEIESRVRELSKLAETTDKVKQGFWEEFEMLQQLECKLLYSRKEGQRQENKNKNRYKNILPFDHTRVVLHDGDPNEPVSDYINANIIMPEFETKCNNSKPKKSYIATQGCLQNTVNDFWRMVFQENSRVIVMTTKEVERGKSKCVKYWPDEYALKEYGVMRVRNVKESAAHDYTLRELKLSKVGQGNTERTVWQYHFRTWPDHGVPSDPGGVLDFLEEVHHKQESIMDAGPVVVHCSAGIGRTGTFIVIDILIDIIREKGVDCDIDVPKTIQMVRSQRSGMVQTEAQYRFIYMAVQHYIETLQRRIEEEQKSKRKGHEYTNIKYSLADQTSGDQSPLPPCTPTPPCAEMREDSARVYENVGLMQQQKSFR

T3 sequence (P29350 whole entry): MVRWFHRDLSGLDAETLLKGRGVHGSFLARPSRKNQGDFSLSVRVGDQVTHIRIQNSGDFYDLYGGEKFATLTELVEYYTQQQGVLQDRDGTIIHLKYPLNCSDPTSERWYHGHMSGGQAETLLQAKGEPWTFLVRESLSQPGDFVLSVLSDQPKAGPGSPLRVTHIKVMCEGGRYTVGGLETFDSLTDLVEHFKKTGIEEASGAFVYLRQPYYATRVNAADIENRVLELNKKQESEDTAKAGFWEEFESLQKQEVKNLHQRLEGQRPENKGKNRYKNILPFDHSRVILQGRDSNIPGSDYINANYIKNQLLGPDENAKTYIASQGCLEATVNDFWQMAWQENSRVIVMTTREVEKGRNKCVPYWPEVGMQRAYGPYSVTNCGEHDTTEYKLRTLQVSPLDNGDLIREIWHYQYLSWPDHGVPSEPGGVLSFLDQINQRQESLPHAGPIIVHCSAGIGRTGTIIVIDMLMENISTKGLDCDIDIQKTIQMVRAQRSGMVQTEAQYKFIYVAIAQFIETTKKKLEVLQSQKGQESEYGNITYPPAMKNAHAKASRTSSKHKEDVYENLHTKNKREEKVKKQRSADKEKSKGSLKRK

Usually inhibition stands for the change of the read-out against control, counted positive when it falls. In experiment [1], `Nc1nc(N2CCC3(CC2)c2ncccc2C[C@H]3N)cnc1Sc1ccnc(N)c1Cl` yielded an inhibition of 20%.
What is called pIC50 is the negative decadic logarithm of the IC50, by convention in mol/L. Regarding `O=C1/C(=N\Nc2ccc(S(=O)(=O)O)cc2)C(c2ccc([N+](=O)[O-])cc2)=NN1c1ccc(C(F)(F)F)cc1`, the values for the negative-log IC50 (pIC50) in [2], in [3] and in experiment [4] were 6.03, 4.84 and 4.97, respectively.
On to `O=c1c2ccccc2n2c(-c3ccccc3O)nnc2n1Cc1ccccc1Cl`, for which the pIC50 in [5] and in experiment [6] was < 4.00 each time.
For the molecule `COc1ccc(N2N=C(c3ccc([N+](=O)[O-])cc3)/C(=N/Nc3ccc(S(=O)(=O)O)cc3)C2=O)cc1`, the pIC50 in experiment [2] was 6.30; in experiment [3] it was 5.67; in experiment [4], 5.17.
Consider `CC1(N)CCN(c2nc3sc(-c4cccc(Cl)c4Cl)nn3c2CO)CC1`, for which the negative logarithm of the IC50 (pIC50) in [7] was 7.65.
For `COc1cccc(-c2nnc3n(Cc4ccc(C(=O)N5CCC[C@H]5C(=O)O)cc4Cl)c(=O)c4ccccc4n23)c1O`, in experiment [5], the pIC50 is < 4.00.
`O=C(Nc1ccc(-c2cc[nH]c2)cc1)C(=O)Nc1cccc(-c2[nH]c3cc(O)c(C(=O)O)cc3c2I)c1`: the Activity with MeWo was 52%.
In [8], `Nc1nc(N2CCC3(CC2)Cc2cnccc2[C@H]3N)cnc1Sc1ccnc(N)c1Cl` had a pIC50 of 8.52.
`Nc1nc(N2CCC3(CC2)Cc2ccncc2[C@H]3N)cnc1Sc1ccnc(N)c1Cl` gave a pIC50 in experiment [8] of 8.15.
Take `Cc1ccc(N2N=C(c3ccc([N+](=O)[O-])cc3)/C(=N/Nc3ccc(S(=O)(=O)O)cc3)C2=O)cc1`: the pIC50 is 6.39 in experiment [2], 5.01 in experiment [3] and 5.18 in experiment [4].
For `Nc1nc(N2CCC3(CCC[C@H]3N)CC2)cnc1-c1cccc(Cl)c1Cl`, in experiment [9], the pIC50 was 7.15.
Consider `C[C@@H]1OCC2(CCC(c3cnc4nc(Sc5ccnc(N6CCCC6)c5Cl)ccc4n3)CC2)[C@@H]1N` (some centres undefined), for which, in experiment [10], the pIC50 was 7.00.
Turning to `Nc1nc(N2CCC3(CC2)Cc2ncsc2[C@H]3N)cnc1Sc1ccnc(N)c1Cl`, in [1] (filed as negative allosteric modulator), the inhibition is 49%.
On to `CC1(N)CCN(c2cnc3c(-c4cccc(Cl)c4Cl)n[nH]c3c2)CC1`, for which the negative-log IC50 (pIC50) in [7] was 7.75.
Regarding `CCOC(=O)c1ccc(N2N=C(c3ccc([N+](=O)[O-])cc3)/C(=N/Nc3ccc(S(=O)(=O)O)cc3)C2=O)cc1`, the pIC50 is 5.68 in [11] and 5.74 in [12].
`CC1(CN)CCN(c2ncc(Sc3cccc(Cl)c3Cl)[nH]c2=O)CC1`: in experiment [13], the pIC50 is > 7.30.
In experiment [1], `Nc1nc(N2CCC3(CC2)Cc2ncccc2[C@H]3N)cnc1Sc1ccnc(N)c1Cl` displayed an inhibition of 30%.
With `Cc1nc(N2CCC3(CC2)CO[C@@H](C)[C@H]3N)c(CO)nc1-c1cccc(Cl)c1Cl`, the pIC50 in experiment [14], in experiment [15] and in experiment [16] was < 5.00 each time.
On to `O=C(O)c1ccc(O)c(-c2nnc3n(Cc4ccccc4Cl)c(=O)c4ccccc4n23)c1`, for which the pIC50 in experiment [5] is < 4.00.
With `O=C1/C(=N\Nc2ccc(S(=O)(=O)O)cc2)C(c2ccc([N+](=O)[O-])cc2)=NN1c1ccc(Cl)cc1`, the pIC50 in experiment [2] was 5.94; in experiment [3] it was 4.99; in [4], 5.05.
Regarding `NC(=O)[C@H](Cc1ccc(C(F)(F)P(=O)(O)O)cc1)NC(=O)[C@H](CC(=O)O)NC(=O)Cc1ccc(C(F)(F)P(=O)(O)O)cc1`, in [17], the pIC50 was 4.96.
For the molecule `O=C1/C(=N\Nc2ccc(S(=O)(=O)O)cc2)C(c2ccc([N+](=O)[O-])cc2)=NN1c1ccc([N+](=O)[O-])cc1`, the values for the negative logarithm of the IC50 (pIC50) in experiment [2], in experiment [3] and in experiment [4] were 7.15, 5.68 and 5.50, respectively. In experiment [18], the Activity worked out at 42.6%.
On to `COc1cccc(-c2nnc3n(Cc4ccccc4Cl)c(=O)c4ccccc4n23)c1O`, for which the pIC50 in experiment [5] is < 4.00; in experiment [19], 4.17.
